Measurements from ChEMBL document CHEMBL3507680, “University of Dundee, Gates Library screen for HepG2 cell viability”.

Experiment: Human HepG2 cell viability assay in 384 well format
Type: toxicity, cell-based
Parameters: dose 125 nL, time 70.5 hour; concentration not given beside the values
Settings: HepG2 cells, read-out: Inhibition

SMILES	cytotoxicity at 70.5 h [%]
COc1ncccc1CN1C[C@@H]2COC[C@]2(CNC(=O)c2ccno2)C1	-15.5
c1cncc(N2CCOC3(CCCN(c4nncs4)C3)C2)c1 (configuration not stated)	-7.3
CS(=O)(=O)NC[C@]12COC[C@H]1CN(C(=O)CCc1ccccc1)C2	-2.39
CC(C)N(C)[C@@H]1CCN(C(=O)[C@H]2CCCO2)[C@H]1Cc1cnn(C)c1	-4.8
Cn1cc(C[C@H]2[C@@H](O)CCN2C(=O)C2CCC2)cn1	-1.34
O=C1CCCN1CC1CN(C(=O)N2CCOCC2)Cc2nccn2C1 (configuration not stated)	-2.04
COCC(=O)N1CCC2(CC1)CC(c1cnn(C)c1)C(=O)N2 (configuration not stated)	-6.84
Cc1ccccc1C(=O)N1CC(C(=O)NCC2CC2)C2(CCOCC2)C1 (configuration not stated)	-1.13
Cc1nnc(N2CCCC3(CN(c4cccc(F)c4)CCO3)C2)o1 (configuration not stated)	1.49
Cc1cccc(CN2CCC3(CCCN(C(=O)CN(C)C)C3)C2=O)n1 (configuration not stated)	2.41
CN(Cc1cn2c(n1)CN(C(N)=O)CC2)Cc1ccco1	-1.71
O=C(NCC1CC1)C1CN(C(=O)c2ccnnc2)CC12CCOCC2 (configuration not stated)	-2.63
Cc1nnc(N2C[C@H](C(=O)NCc3ccco3)[C@@H]3CCO[C@@H]3C2)s1	-1.66
CN1CC(=O)N(c2ccsc2)CC12CCN(Cc1nccn1C)C2 (configuration not stated)	-0.505
Cc1nc([C@H]2C[C@@H]3CCN(C(=O)c4ccnnc4)C[C@H]3O2)sc1C	-0.727
COCCN1C(=O)CCC12CCCN(c1ncc(F)cn1)CC2 (configuration not stated)	1.58
CCC1=N[C@@]2(CC[C@@H]3CN(S(=O)(=O)CC)C[C@@H]32)C(=O)N1CCOC	-2.77
COCC1CN(C(=O)c2cccn2C)Cc2cnn(C)c21 (configuration not stated)	-0.85
Cn1cnc2c1C(COCC1CC1)CN(C(=O)c1cccs1)C2 (configuration not stated)	8.88
Cn1cnc2c1C(COCC1CC1)CN(C(=O)c1ccsc1)C2 (configuration not stated)	6.4
O=C(Cc1ccccn1)N1CCn2cc(Cn3cncn3)nc2C1	0.952
Cc1ccc(CN2C[C@@H](c3ccccc3)[C@@]3(CCNC3=O)C2)o1	2.86
CCS(=O)(=O)N1CCc2cc(C(=O)NC)c(N(C)C)nc2CC1	5.95

SMILES	cytotoxicity at 70.5 h [%]
O=C(NCCC(O)c1ccccc1)c1ccco1 (configuration not stated)	-8.79
O=C(CCn1nc(C(F)(F)F)c(Br)c1C1CC1)NN1CCOCC1	-4.82
Cc1nn(C)c(C)c1C(=O)NN1CCOCC1	-6.78
CS(=O)(=O)Nc1ccn(Cc2ccc(Cl)cc2)n1	10.5
CCn1ccc(NC(=O)c2cc(C)on2)n1	-8.5
CC1CCC(NC(=O)c2nn(C)cc2I)CC1 (configuration not stated)	-7.74
Cc1c(Cl)c(C(=O)NC(C)CN2CCOCC2)nn1C (configuration not stated)	6.43
Cc1nn(C)c(C)c1CN(C)C(=O)c1cc(C(F)(F)F)n(C)n1	-5.06
Cc1c(CN(C)C(=O)c2ccnn2C)cnn1C	6.18
COC(=O)C1=C(C)N=C2SCC(=O)N2C1c1cn(C)nc1C (configuration not stated)	-9.65
CCn1ccc(CNC(=O)c2cc(OC)cc(OC)c2)n1	-10.5
CCn1cc(NC(=O)C(C)n2ncc(Cl)c2C)c(C(=O)NC)n1 (configuration not stated)	-3.34
CCCNC(=O)c1nn(CC)cc1NC(=O)C(C)n1ncc(Cl)c1C (configuration not stated)	-5.37
CCn1cc(NC(=O)C(C)n2ncc(Cl)c2C)c(C(=O)OC)n1 (configuration not stated)	-3.71
Cc1ccnn1CCCNC(=O)C1CCN(S(C)(=O)=O)CC1	-1.25
COc1cccc(Cn2cc(N3C(=O)CCC3=O)cn2)c1	3.42
CCc1nnc(SCc2nonc2C)n1C1CC1	-10.7
CCn1cc(-c2nn3c(C(F)(F)F)nnc3s2)c(C)n1	-3.8
Cc1cc(C(F)(F)F)nc(N2CCN3CCCC3C2)n1 (configuration not stated)	-10.5
Cc1ccc(-c2cc(C(F)(F)F)nc(N3CCOCC3)n2)s1	-11.3
NC(=O)c1nc(-c2ccc(Cl)cc2Cl)oc1N	-3.66
CCn1cc(CN(C)S(=O)(=O)c2cnn(C)c2)cn1	-6.45
CC(Cn1cccn1)NC(=O)c1cc(C2CC2)nc2c1cnn2C (configuration not stated)	-9.86

SMILES	cytotoxicity at 70.5 h [%]
CC(CNC(=O)c1cc(C2CC2)nc2c1cnn2C)Cn1cccn1 (configuration not stated)	-6.63
CCn1ncc2c(C(F)(F)F)cc(-c3cnn(C)c3)nc21	-11.4
Nc1nnc(CCCn2nnc(-c3ccccc3F)n2)s1	-15.5
Clc1ccc2[nH]c3c(c2c1)CCCC3c1nn[nH]n1 (configuration not stated)	-6.09
COc1ccc([C@@H]2NC(=O)N[C@H]3OCCC[C@H]32)cc1	-4.38
COc1c(C2SCC(=O)Nc3[nH]ncc32)cc2c(c1OC)OCO2 (configuration not stated)	-13.6
O=C1CC(c2ccc(F)cc2)c2snc(C(=O)O)c2N1 (configuration not stated)	-10.3
COc1ccc(C2=NOC(C#N)C2)cc1 (configuration not stated)	8.47
N#Cc1ccc(C2CC(=O)Nc3c(C(=O)O)nsc32)cc1 (configuration not stated)	-5.94
CCc1ccccc1NC(=O)c1cnn(C)c1C	-7.12
COC(=O)Cn1ccc(=O)c2ccc(OC)cc21	39.1
CCN(CC)C(=O)c1nnsc1-c1ccc(Cl)cc1	-17.2
CS(=O)(=O)N1CCN(C(=O)c2cc(-c3cccs3)cs2)CC1	-5.33
CS(=O)(=O)N1CCN(C(=O)c2cc(-c3ccco3)cs2)CC1	0.0321
O=C(c1cc(-c2ccco2)cs1)N1CCOCC1	-0.411
O=C(NC1CC1)c1cc(Sc2ncccn2)ccn1	-14.6
Cc1cc(C(=O)Nc2cnn(CC(F)(F)F)c2)nc(N(C)C)n1	-1.64
Cc1ccc(C(=O)Nc2c(C(=O)N(C)C)nn(C)c2C)cc1	-4.31
Cc1c(NC(=O)c2ccc(Br)cc2)c(C(=O)N(C)C)nn1C	-6.74
COc1ccc(C(=O)Nc2c(C(=O)N(C)C)nn(C)c2C)cc1	-6.56
Cc1ccnn1C(C)C(=O)Nc1cc(-c2ccncc2)[nH]n1 (configuration not stated)	-6.01
O=C(c1cc(-c2ccco2)cs1)N1CCCC1	-16.3
O=C1c2cnc(N3CCC(O)CC3)nc2CN1Cc1cccc(F)c1	22

SMILES	cytotoxicity at 70.5 h [%]
NC(=O)CN1CCOCC(Cc2cccc(F)c2)C1 (configuration not stated)	-12.7
NC(=O)CN1CCOCC(Cc2ccccc2Cl)C1 (configuration not stated)	-3.99
Cc1ccnc(C2(C)CCCN2C(=O)c2cnccn2)n1 (configuration not stated)	-10.4
CN(C)c1ncccc1CN1CCOC(C(=O)Nc2ccccc2)C1 (configuration not stated)	-7.2
Cc1ccccc1CNC(=O)c1ccccc1-n1cc(CN)cn1	-8.06
CN(C)c1cc(C2CCCN2Cc2ccccc2OCC(=O)O)ccn1 (configuration not stated)	-6.83
O=C(c1ccno1)N1CCCC(c2ncncc2-c2ccncc2)C1 (configuration not stated)	-9.77
O=C(N1CCOCC1)N1CCCC(c2ncncc2-c2ccncc2)C1 (configuration not stated)	-9.55
Cc1cc(CN2CCC(C3Nc4ccccc4S(=O)(=O)N3)CC2)oc1C (configuration not stated)	-3.27
Cc1cc(-c2cnc(N3CCOCC3)nc2-c2cccnc2C)on1	-4.33
Cc1cc(-c2cnc(N3CCNC(=O)C3)nc2-c2sccc2C)on1	-6.64
CC(=O)N1CCCC(c2ccc(N3CCOCC3)cn2)C1 (configuration not stated)	-5.65
COCC(=O)N1CCCCC1c1nccc(C)n1 (configuration not stated)	3.46
CC(=O)N1CCCC(c2ccc(Br)cn2)C1 (configuration not stated)	-6.22
CCN1CCCC(c2cc(Nc3cnccn3)nc(C)n2)C1 (configuration not stated)	-6.21
CCc1cnc(N2CCC3(CC(=O)N(Cc4csc(C)n4)C3)C2)nc1 (configuration not stated)	-12
CCCC(=O)N1CCOC2(COCCN(CC(=O)NC)C2)C1 (configuration not stated)	-10.5
CC(C)CN1CC[C@H]2OCC[C@@H](C(=O)N3CCCO3)[C@@H]2C1	-18.2
CNC(=O)c1cc2c(nc1NCC1CC1)CCN(S(C)(=O)=O)CC2	-23.3
Cn1cc(CN2CCn3cc(Cn4cccn4)nc3C2)cn1	44.1
O=C([C@@H]1CCO[C@@H]2CCN(CC3CCOCC3)C[C@H]21)N1CCCO1	46.7
Cc1ccc(CN2CC[C@H]3OCC[C@@H](C(=O)N4CCCCO4)[C@@H]3C2)o1	47.1
COCC(=O)N1CCCC2(CCN(Cc3cccc(C)n3)C2=O)C1 (configuration not stated)	-0.526

SMILES	cytotoxicity at 70.5 h [%]
O=C1CCCN1CC1CN(CC2CCOCC2)Cc2nccn2C1 (configuration not stated)	-2.55
c1cnc(N2CCOCC3(CN(Cc4nccs4)CCO3)C2)nc1 (configuration not stated)	-2.26
O=C(c1ccc(F)cc1)N1C[C@H]2CCC[C@@]2(COCc2ccncc2)C1	-0.425
Cc1ccsc1C(=O)N1Cc2ncn(C)c2C(COCC2CC2)C1 (configuration not stated)	5.9
O=C(Cc1ccccn1)NCC1OCCc2cn(CC3CC3)nc21 (configuration not stated)	11.2
O=C(NC1CC1)[C@H]1C[C@H]2OCC[C@H]2N(Cc2cccc3ccccc23)C1	-0.842
O=C(c1ccco1)N1C[C@@H]2[C@@H](C1)OCC(=O)N2Cc1cccnc1	7.81
O=S(=O)(C1CC1)N1C[C@H](Oc2ccccn2)[C@H]2OCCC[C@H]21	-0.632
CN(C)S(=O)(=O)N1C[C@@H]2CN(Cc3ccoc3)CCO[C@@H]2C1	-4.48
Cc1noc([C@@H]2C[C@H]3CN(CC4CCOCC4)C[C@H]3O2)n1	14.1
O=S(=O)(C1CC1)N1CCC[C@]2(C[C@@H](Oc3ccccn3)CO2)C1	14.1
c1csc(CN2Cc3[nH]nc(COCC4CC4)c3C2)c1	-8.6
Cc1nc(CN2CC[C@H]3[C@H]2CCN3c2nncs2)cs1	-3.7
CC(C)N1CCOCC2(CN(Cc3cccs3)CCO2)C1 (configuration not stated)	-0.496
c1cn2c(n1)CN(C1CCOCC1)CC(CN1CCCC1)C2 (configuration not stated)	-2.92
Cn1cc(CN2CCO[C@@H]3CN(C4CCCC4)C[C@@H]3C2)cn1	1.26
COc1ncccc1CN1CC[C@]2(C[C@@H](OCc3ccccn3)CO2)C1	-13.8
c1cc(CN2CCOCC3(C2)CN(Cc2nccs2)CCO3)ccn1 (configuration not stated)	17.5
CN(C)CCN1CCOCC2(C1)CN(Cc1nccs1)CCO2 (configuration not stated)	16.3
CCOCC1CN(Cc2cccnc2OC)Cc2cnn(C)c21 (configuration not stated)	2.89
